# Assay results reported in ChEMBL document CHEMBL6182933, “Design and Synthesis of PARP/CDK6 Dual-Target Inhibitors Modulating of Wnt/β-Catenin Signaling Pathway for the Treatment of BRCA Wild-Type TNBC” (J Med Chem, 2025).
# Key:
# MDA-MB-231 = assay: Antiproliferative activity against human MDA-MB-231 cells assessed as cell viability incubated for 48 hrs by MTT assay; assay type: functional, cell-based; settings: MDA-MB-231, 48 h
# [1] = Selectivity index, ratio of IC50 for antiproliferative activity against human HCC1937 cells harboring BRCA1 mutant assessed as cell viability to IC50 for antiproliferative activity against human MDA-MB-231 cells assessed as cell viability; assay type: functional
# [2] = target: Poly [ADP-ribose] polymerase 1 (Homo sapiens, UniProt P09874); assay: Inhibition of GST-tagged PARP1(unknown origin) in presence of activated DNA incubated for 60 mins by microplate reader analysis
# Poly [ADP-ribose] polymerase 1, sequence (P09874 whole entry): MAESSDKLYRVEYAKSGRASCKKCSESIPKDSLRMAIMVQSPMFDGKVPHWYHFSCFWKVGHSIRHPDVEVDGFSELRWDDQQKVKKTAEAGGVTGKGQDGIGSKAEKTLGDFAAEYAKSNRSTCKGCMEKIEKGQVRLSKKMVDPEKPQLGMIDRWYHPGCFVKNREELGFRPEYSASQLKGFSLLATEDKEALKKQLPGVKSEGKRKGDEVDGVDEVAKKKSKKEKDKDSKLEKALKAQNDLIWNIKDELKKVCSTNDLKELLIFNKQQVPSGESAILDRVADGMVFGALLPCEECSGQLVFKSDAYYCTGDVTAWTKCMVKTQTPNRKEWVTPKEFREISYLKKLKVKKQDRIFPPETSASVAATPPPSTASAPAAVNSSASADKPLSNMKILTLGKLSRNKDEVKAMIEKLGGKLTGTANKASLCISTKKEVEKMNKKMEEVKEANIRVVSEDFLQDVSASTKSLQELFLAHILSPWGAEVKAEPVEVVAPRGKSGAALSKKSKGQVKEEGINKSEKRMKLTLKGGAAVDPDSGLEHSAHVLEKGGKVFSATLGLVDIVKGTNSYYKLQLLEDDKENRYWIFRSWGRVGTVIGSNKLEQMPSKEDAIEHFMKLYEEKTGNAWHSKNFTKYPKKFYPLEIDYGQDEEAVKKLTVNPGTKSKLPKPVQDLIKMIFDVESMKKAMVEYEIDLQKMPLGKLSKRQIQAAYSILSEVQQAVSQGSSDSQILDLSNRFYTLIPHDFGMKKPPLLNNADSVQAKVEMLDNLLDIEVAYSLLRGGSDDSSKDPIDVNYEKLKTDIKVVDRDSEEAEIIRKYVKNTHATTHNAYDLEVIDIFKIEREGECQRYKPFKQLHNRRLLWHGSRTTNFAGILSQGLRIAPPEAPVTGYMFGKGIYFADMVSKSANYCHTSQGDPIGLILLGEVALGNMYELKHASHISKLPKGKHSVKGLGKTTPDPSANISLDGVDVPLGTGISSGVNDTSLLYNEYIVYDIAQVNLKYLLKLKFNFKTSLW
# [3] = Cytotoxicity against human MCF-10A cells assessed as cell viability incubated for 48 hrs by MTT assay; assay type: toxicity, cell-based
# MDA-MB-468 = assay: Antiproliferative activity against human MDA-MB-468 cells assessed as cell viability incubated for 48 hrs by MTT assay; assay type: functional, cell-based; settings: MDA-MB-468, 48 h
# HCC1937 = assay: Antiproliferative activity against human HCC1937 cells harboring BRCA1 mutant assessed as cell viability incubated for 48 hrs by MTT assay; assay type: functional, cell-based; settings: HCC1937, 48 h
# HCT-116 = assay: Antiproliferative activity against human HCT-116 cells harboring BRCA2 mutant assessed as cell viability incubated for 48 hrs by MTT assay; assay type: functional, cell-based; settings: HCT-116, 48 h
# [4] = target: Cyclin-dependent kinase 6 (Homo sapiens, UniProt Q00534); assay: Inhibition of full length N-terminal human recombinant CDK6 expressed in baculovirus sf9 cells in presence of ATP by ADP-glo kinase assay
# Cyclin-dependent kinase 6, sequence (Q00534 whole entry): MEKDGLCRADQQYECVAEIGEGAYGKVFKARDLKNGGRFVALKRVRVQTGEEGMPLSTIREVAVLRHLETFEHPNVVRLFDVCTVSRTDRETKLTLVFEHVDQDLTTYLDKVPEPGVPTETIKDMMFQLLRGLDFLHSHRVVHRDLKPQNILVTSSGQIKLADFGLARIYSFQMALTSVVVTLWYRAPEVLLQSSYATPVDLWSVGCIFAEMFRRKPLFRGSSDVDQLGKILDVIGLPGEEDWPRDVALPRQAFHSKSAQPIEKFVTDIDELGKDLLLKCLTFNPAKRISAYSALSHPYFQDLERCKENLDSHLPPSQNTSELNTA
smiles,measurement,setting,value
CN(C)C(=O)c1cc2cnc(Nc3ccc(C(=O)N4CCC(c5nc6c(C(N)=O)cccc6[nH]5)C4)cc3Cl)nc2n1C1CCCC1 (stereo not drawn),IC50,MDA-MB-231,1590 nM
same,Ratio IC50,[1],5.48
same,IC50,[2],113 nM
same,IC50 at 48 h,[3],930 nM
same,IC50,MDA-MB-468,4390 nM
same,IC50,HCC1937,8720 nM
same,IC50,HCT-116,2020 nM
same,IC50,[4],45.6 nM
